Measurements taken from ChEMBL document CHEMBL6121046, “Discovery of Novel Hydrazide-Based HDAC3 Inhibitors as Epigenetic Immunomodulators for Cancer Immunotherapy” (J Med Chem, 2025).
pIC50: −log10 of the molar value. The source made the active and inactive calls. The rule behind the calls is not given here.

Assays:
MC-38 [1] = test: Induction of apoptosis in mouse MC38 cells assessed as viable cells at 1 uM measured after 48 hrs by FITC/PI staining based flow cytometry (reference value: 82.07%); assay type: functional; details: read-out: Activity
Histone deacetylase 7 = target: T1, Histone deacetylase 7 (Homo sapiens, UniProt Q8WUI4); test: Inhibition of human recombinant HDAC7 pre-incubated with compounds for 10 mins measured followed by 60 mins of substrate addition
T1 sequence (Q8WUI4 whole entry): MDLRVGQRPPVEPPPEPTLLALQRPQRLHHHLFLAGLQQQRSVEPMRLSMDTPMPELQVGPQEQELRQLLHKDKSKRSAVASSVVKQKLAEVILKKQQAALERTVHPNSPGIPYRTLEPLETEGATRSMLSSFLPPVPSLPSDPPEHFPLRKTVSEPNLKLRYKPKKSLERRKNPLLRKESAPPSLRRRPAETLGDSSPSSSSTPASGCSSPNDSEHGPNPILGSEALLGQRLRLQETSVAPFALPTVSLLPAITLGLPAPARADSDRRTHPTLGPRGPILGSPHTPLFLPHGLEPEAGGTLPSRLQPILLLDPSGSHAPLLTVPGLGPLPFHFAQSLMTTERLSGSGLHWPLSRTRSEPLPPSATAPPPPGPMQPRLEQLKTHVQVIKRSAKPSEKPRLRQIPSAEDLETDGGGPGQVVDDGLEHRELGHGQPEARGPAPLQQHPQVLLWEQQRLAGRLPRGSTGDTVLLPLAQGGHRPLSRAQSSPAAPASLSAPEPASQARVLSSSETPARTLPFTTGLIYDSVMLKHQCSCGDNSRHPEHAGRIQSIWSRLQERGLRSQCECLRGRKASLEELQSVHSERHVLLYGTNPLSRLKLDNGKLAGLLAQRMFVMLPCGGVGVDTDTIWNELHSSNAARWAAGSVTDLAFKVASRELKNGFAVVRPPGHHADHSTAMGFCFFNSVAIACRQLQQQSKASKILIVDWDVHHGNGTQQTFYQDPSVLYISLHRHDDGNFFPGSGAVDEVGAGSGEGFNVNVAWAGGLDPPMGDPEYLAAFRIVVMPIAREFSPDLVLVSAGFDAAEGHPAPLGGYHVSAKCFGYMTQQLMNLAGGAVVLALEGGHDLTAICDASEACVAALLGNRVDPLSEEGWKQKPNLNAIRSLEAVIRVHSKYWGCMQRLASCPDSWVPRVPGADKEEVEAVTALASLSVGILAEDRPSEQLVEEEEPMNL

MC-38 [2] = test: Effect on acetylated alpha-tubulin in mouse MC38 cells at 0.1 to 2 uM measured after 24 hrs incubation by Western blot analysis; assay type: functional, cell-based; details: dose 0.1-2 µM
MC-38 [3] = test: Induction of apoptosis in mouse MC38 cells assessed as late apoptotic cells at 4 uM measured after 48 hrs by FITC/PI staining based flow cytometry (reference value: 5.07%); assay type: functional
MC-38 [4] = test: Induction of apoptosis in mouse MC38 cells assessed as necrotic cells at 1 uM measured after 48 hrs by FITC/PI staining based flow cytometry (reference value: 0.56%); assay type: functional
MC-38 [5] = test: Induction of apoptosis in mouse MC38 cells assessed as early apoptotic cells at 4 uM measured after 48 hrs by FITC/PI staining based flow cytometry (Rvb =12.27%); assay type: functional
MC-38 [6] = test: Induction of apoptosis in mouse MC38 cells assessed as early apoptotic cells at 8 uM measured after 48 hrs by FITC/PI staining based flow cytometry (Rvb =12.27%); assay type: functional
[7] = Antiproliferative activity against […] cells measured after 48 hrs incubation by MTT assay relative to control; assay type: functional, cell-based; details: Mus musculus, Lung cancer cell line
[8] = target: T2, Protein deacetylase HDAC6 (Homo sapiens, UniProt Q9UBN7); test: Inhibition of human recombinant HDAC6 pre-incubated with compounds for 10 mins measured followed by 60 mins of substrate addition
T2 sequence (Q9UBN7 whole entry): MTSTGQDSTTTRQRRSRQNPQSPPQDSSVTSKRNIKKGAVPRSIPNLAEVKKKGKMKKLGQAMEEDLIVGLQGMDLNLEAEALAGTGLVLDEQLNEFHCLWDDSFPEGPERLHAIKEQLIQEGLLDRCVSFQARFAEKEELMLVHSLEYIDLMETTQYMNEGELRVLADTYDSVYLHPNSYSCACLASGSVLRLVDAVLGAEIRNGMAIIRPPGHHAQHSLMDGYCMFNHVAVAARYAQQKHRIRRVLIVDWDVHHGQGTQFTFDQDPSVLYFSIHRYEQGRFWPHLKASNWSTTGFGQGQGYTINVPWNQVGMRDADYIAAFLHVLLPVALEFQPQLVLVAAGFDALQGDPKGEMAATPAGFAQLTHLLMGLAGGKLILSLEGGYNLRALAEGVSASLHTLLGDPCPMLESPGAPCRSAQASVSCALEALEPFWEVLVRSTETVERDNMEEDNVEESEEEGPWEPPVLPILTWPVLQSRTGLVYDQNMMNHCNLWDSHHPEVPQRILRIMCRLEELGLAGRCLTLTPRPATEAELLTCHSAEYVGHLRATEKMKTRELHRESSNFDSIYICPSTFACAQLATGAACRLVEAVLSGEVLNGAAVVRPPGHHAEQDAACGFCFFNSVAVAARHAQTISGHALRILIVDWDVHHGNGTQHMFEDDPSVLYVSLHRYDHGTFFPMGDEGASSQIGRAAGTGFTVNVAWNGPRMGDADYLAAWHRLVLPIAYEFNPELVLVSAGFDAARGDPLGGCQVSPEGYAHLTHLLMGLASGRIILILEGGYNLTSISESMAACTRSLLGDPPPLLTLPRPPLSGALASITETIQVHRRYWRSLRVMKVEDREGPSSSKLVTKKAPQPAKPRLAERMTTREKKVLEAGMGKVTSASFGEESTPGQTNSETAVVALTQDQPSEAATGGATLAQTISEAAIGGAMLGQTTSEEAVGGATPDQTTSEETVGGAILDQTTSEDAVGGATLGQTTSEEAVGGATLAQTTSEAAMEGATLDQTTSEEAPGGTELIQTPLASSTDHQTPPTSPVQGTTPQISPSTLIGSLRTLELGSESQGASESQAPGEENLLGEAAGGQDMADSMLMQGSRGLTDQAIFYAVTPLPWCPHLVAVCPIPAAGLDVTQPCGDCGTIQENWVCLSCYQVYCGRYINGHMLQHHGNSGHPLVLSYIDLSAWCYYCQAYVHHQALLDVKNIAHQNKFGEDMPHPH

HeLa = test: Antiproliferative activity against human HeLa cells measured after 48 hrs incubation by MTT assay relative to control; assay type: functional, cell-based
MC-38 [9] = test: Induction of apoptosis in mouse MC38 cells assessed as viable cells at 8 uM measured after 48 hrs by FITC/PI staining based flow cytometry (reference value: 82.07%); assay type: functional; details: read-out: Activity
MC-38 [10] = test: Induction of apoptosis in mouse MC38 cells assessed as necrotic cells at 2 uM measured after 48 hrs by FITC/PI staining based flow cytometry (reference value: 0.56%); assay type: functional
MC-38 [11] = test: Induction of apoptosis in mouse MC38 cells assessed as early apoptotic cells at 2 uM measured after 48 hrs by FITC/PI staining based flow cytometry (Rvb =12.27%); assay type: functional

Structure (SMILES)	viability at 1 µM (MC-38 [1])	pIC50 (Histone deacetylase 7)	Activity (MC-38 [2])	Activity (MC-38 [3])	Activity (MC-38 [4])	Activity (MC-38 [5])	Activity (MC-38 [6])	pIC50 [7]	pIC50 [8]	pIC50 (HeLa)	viability at 8 µM (MC-38 [9])	Activity (MC-38 [10])	Activity (MC-38 [11])
CCCNNC(=O)c1ccc(CNC(=O)c2cnc(-c3ccc4occc4c3)[nH]2)cc1	49.3%	< 5.00	inactive	54.95%	3.72%	24.75%	19.83%	5.99	< 5.00	5.65	16.4%	2.15%	31.2%
CCCNNC(=O)c1ccc(CNC(=O)c2cnc(-c3cccc4ccccc34)[nH]2)cc1	50.7%	< 5.00	inactive	26.83%	2.9%	43.9%	22.9%	6.03	5.01	5.88	22.2%	9.01%	18.6%
